This assay relates to M. tuberculosis H37Rv growth inhibition with meropenem. Kind of assay: dose response, H37Rv, with and without meropenem (AID 434987).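 Also: growth over 7 days at 37 °C before Alamar Blue read on day 9.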
Setting [1] is: M. tuberculosis H37Rv growth inhibition, measured here: IC50 without meropenem.
Where [2] appears, read: M. tuberculosis H37Rv growth inhibition, measured here: IC90 without meropenem.
The mark [3] stands for this setting: measured here: IC90 with meropenem.

Active and inactive are the calls of the source. No rule for the calls is given here.

In the case of `COC(=O)c1ccc(/C=N/NC(=O)c2cccc(F)c2)cc1`, the IC50 was > 100 µM (inactive). Also, the IC50 under setting [1] was greater than 100 µM. The compound also gave an IC90 under setting [2] greater than 100 µM. Under setting [3], this compound displayed a concentration for an effect of 90% (IC90) greater than 100 µM.

With `CSc1ncc(Cl)c(C(=O)Nc2cccc3ccccc23)n1`, the half-inhibitory concentration (IC50) is 8.49 µM. Under setting [1], this compound returned an IC50 of 43.5 µM. This compound also gave a 90% effect concentration (IC90) under setting [2] greater than 100 µM. The compound further registered an IC90 under setting [3] greater than 100 µM.

`CCC1Nc2ncnc(N3CCN(c4ccccc4)CC3)c2N(Cc2ccc(Br)cc2)C1=O` (stereo not drawn): the IC50 is > 100 µM (inactive). This compound also gave an IC50 under setting [1] greater than 100 µM. In addition, the IC90 under setting [2] was greater than 100 µM. Under setting [3], this compound came in with an IC90 greater than 100 µM.

`c1ccc(-c2cc(N3CCOCC3)nc3ccccc23)cc1`: the concentration for half-maximal inhibition (IC50) was 2.78 µM. Under setting [1], this compound yielded an IC50 greater than 100 µM. The IC90 under setting [2] is greater than 100 µM. The same compound returned an IC90 under setting [3] of 91.5 µM.

`N=C1C(c2nc3ccccc3[nH]2)=C(O)CN1c1ccc(F)cc1`: the IC50 is 7.73 µM. Under setting [1], the IC50 is greater than 100 µM. Moreover, the IC90 under setting [2] was greater than 100 µM. Under setting [3], the IC90 is greater than 100 µM.

In the case of `COc1cccc(NS(=O)(=O)c2ccc3[nH]cc(C(=O)NCCC(C)C)c(=O)c3c2)c1`, the IC50 was > 100 µM (inactive). The compound also returned an IC50 under setting [1] greater than 100 µM. This compound displayed an IC90 under setting [2] greater than 100 µM. This compound also showed an IC90 under setting [3] greater than 100 µM.

On to `Cc1ccc(C(=O)N/C(=C\c2ccc(-c3ccc(Cl)cc3)o2)C(=O)NCCCN(C)C)cc1`, for which the IC50 is 22.4 µM (inactive). Moreover, the IC50 under setting [1] came out at 25.2 µM. Under setting [2], the IC90 was determined as 28.3 µM. Under setting [3], this compound came in with an IC90 of 23.7 µM.

With `O=c1oc(-c2ccccc2F)nc2scc(-c3ccccc3)c12`, the half-maximal inhibitory concentration (IC50) is 2.19 µM. Under setting [1], this compound yielded an IC50 greater than 100 µM. Under setting [2], this compound had an IC90 greater than 100 µM. Under setting [3], this compound registered an IC90 of 3.05 µM.

As for `COC(=O)C1=C(C)NC(=O)/C1=C\c1cc(C)n(-c2cc(C)cc(C)c2)c1C`, the IC50 is 88.9 µM (inactive). The half-inhibitory concentration (IC50) under setting [1] was 97.9 µM. The IC90 under setting [2] was greater than 100 µM. In addition, under setting [3], the IC90 is greater than 100 µM.

`O=C1C2ON(c3ccc(Br)cc3)C(c3cccnc3)C2C(=O)N1C1CCCCC1` (stereo not drawn): the IC50 is > 100 µM (inactive). This compound also gave a concentration for half-maximal inhibition (IC50) under setting [1] greater than 100 µM. The concentration for an effect of 90% (IC90) under setting [2] was greater than 100 µM. Besides, the concentration for an effect of 90% (IC90) under setting [3] is greater than 100 µM.

Take `CCOC(=O)c1ccc(C(=O)NNC(=O)C2CC=CCC2)cc1` (stereo not drawn): the IC50 was 8.57 µM (inactive). Besides, under setting [1], the 50% inhibitory concentration (IC50) is 20.9 µM. Also, under setting [2], the 90% effect concentration (IC90) stood at 31.9 µM. Under setting [3], this compound returned an IC90 of 40 µM.

Turning to `O=C(c1ccc(-c2ccc(Cl)cc2)o1)N1CCN(S(=O)(=O)c2cccs2)CC1`, the IC50 is 95.2 µM (inactive). In addition, under setting [1], the IC50 is greater than 100 µM. Moreover, the IC90 under setting [2] is greater than 100 µM. Besides, under setting [3], the IC90 stood at 99.6 µM.

`COc1ccc(C(=O)CN(C(=O)c2ccc(Cl)cc2)N2C(=O)c3ccccc3C2=O)cc1`: the half-maximal inhibitory concentration (IC50) was 5.66 µM. Besides, under setting [1], the IC50 was 34.9 µM. Under setting [2], this compound yielded an IC90 greater than 100 µM. Also, under setting [3], the IC90 was determined as 22.4 µM.

On to `COc1ccccc1NC(=O)Nc1nn(C)c2cccc(OC)c12`, for which the IC50 is 4.18 µM. The same compound displayed an IC50 under setting [1] of 21.1 µM. Besides, under setting [2], the IC90 is greater than 100 µM. This compound showed an IC90 under setting [3] greater than 100 µM.

Turning to `COCCSc1nc2sc3c(c2c(=O)n1-c1ccccc1)CCN(C)C3`, the IC50 was 38.1 µM (inactive). In addition, the IC50 under setting [1] was 41.9 µM. For the same compound, under setting [2], the 90% effect concentration (IC90) is 54.3 µM. Moreover, the IC90 under setting [3] was 53.3 µM.

In the case of `CC1=Nc2ccccc2/C1=C\c1nc(-c2ccc(F)cc2)oc1O`, the IC50 was 3.73 µM. The compound further showed an IC50 under setting [1] of 93.7 µM. For the same compound, under setting [2], the IC90 was greater than 100 µM. Besides, the IC90 under setting [3] was greater than 100 µM.

As to `CCOC(=O)C1=C(N)OC(CCl)=C(C#N)C1c1ccsc1` (stereo not drawn), the IC50 was > 100 µM (inactive). Also, under setting [1], the half-inhibitory concentration (IC50) is greater than 100 µM. Under setting [2], this compound yielded an IC90 greater than 100 µM. For the same compound, the IC90 under setting [3] is greater than 100 µM.

Regarding `Cc1c(C(=O)c2ccccc2)oc2ccc3ccccc3c12`, the IC50 was > 100 µM (inactive). This compound also returned an IC50 under setting [1] greater than 100 µM. The same compound gave an IC90 under setting [2] greater than 100 µM. The IC90 under setting [3] was greater than 100 µM.

Consider `COC(=O)c1ccc(-c2cc(C(=O)O)c3cc4c(cc3n2)OCCO4)cc1`, for which the IC50 is > 100 µM (inactive). Moreover, the IC50 under setting [1] was greater than 100 µM. Under setting [2], this compound came in with an IC90 greater than 100 µM. Under setting [3], this compound came in with an IC90 greater than 100 µM.

As to `O=C1C(Cl)=C(N2CCCCC2)C(=O)N1c1ccccc1`, the IC50 was 23.9 µM. Under setting [1], this compound returned a concentration for half-maximal inhibition (IC50) greater than 100 µM. Besides, the IC90 under setting [2] is greater than 100 µM. Under setting [3], the IC90 is greater than 50 µM.

Consider `CN1CCN(c2ccc(NC(=O)c3ccc(-c4cccc([N+](=O)[O-])c4)o3)cc2)CC1`, for which the IC50 is 5.87 µM (inactive). Further, the IC50 under setting [1] was 6.97 µM. Under setting [2], the IC90 turned out to be 18.1 µM. In addition, the IC90 under setting [3] came to 6.71 µM.

With `Cc1ccc(NC(=O)O/N=C/c2c(C)nn(C(C)(C)C)c2C)cc1Cl`, the IC50 is > 100 µM (inactive). Further, the IC50 under setting [1] was greater than 100 µM. Under setting [2], this compound showed an IC90 greater than 100 µM. This compound also displayed an IC90 under setting [3] greater than 100 µM.

Source of the values: PubChem BioAssay AID434987 (Southern Research Specialized Biocontainment Screening …, 2010).
